The subject of test [1] is Influenza A virus PC/1/73. Nature of the test: microbe, parasite or virus in culture. The format is cell-based. The settings on record: read-out: Infl A PC/1/73 EC50.
The subject of test [2] is Influenza B virus B/Lee/40. Nature of the test: Normal Human Bronchial/Tracheal Epithelial Cell Influenza Infection Assay (EC50), Influenza B Lee/40. Format: cell-based. The settings on record: Normal Human Bronchial/Tracheal Epithelial Cells, 10 MOI, five day incubation, neuramidase substrate fluorescence, read-out: Infl B Lee/40 EC50. The procedure:
Normal Human Bronchial/Tracheal Epithelial Cell Influenza Infection Assay (EC50)
Normal Human Bronchial/Tracheal Epithelial Cells (Lonza, Basel Switzerland) are seeded to 384-well plates at a density of 4000 cells per well in BEGM medium supplemented with growth factors (Lonza, Basel Switzerland). Medium is removed next day, and cells are washed three times with 100 μL of RPMI+1% BSA (RPMI-BSA). 30 μL of RPMI-BSA is added to cells thereafter. Compounds are 3-fold serially diluted in DMSO, and 0.4 μL of compound dilutions are stamped to plates. Influenza A virus HK/8/68 (Advanced Biotechnology Inc, Columbia, Md., 13.5 MOI), PC/1/73 (ATCC Manassas, Va., 0.3 MOI) and Influenza B virus B/Lee/40 ((ATCC Manassas, Va., 10 MOI) are added to cells in 10 μL of RPMI-BSA medium supplemented with 8 ug/mL trypsin (Worthington, Lakewood, N.J.). After a five day incubation, 40 μL of buffer containing 66 mM Mes pH 6.5, 8 mM CaCl2, 0.5% NP-40 and 100 μM neuramidase substrate (2′-(4-Methylumbelliferyl)-α-D-N-acetylneuraminic acid sodium salt hydrate, Sigma Aldrich, St. Luis, Mo.) is added to cells. Fluorescence of the product of hydrolysis is read using excitation at 360 nm and emission at 450 nm after a 1 hour incubation at 37° C. EC50 values are calculated by non-linear regression of multiple data sets.

A further test deals with Influenza RNA polymerase (Influenza A virus, UniProt P03431). Put plainly: Influenza RNA Polymerase Inhibition (IC50) Assay. Format: biochemical. The settings on record: virus lysate of Influenza A/PR/8/34 (H1N1), 30° C. for 90 minutes, α-33P labeled NTP incorporation. The protocol: Influenza RNA Polymerase Inhibition (IC50) Assay
Influenza A/PR/8/34 (H1N1) purified virus was obtained from Advanced Biotechnologies Inc. (Columbia, Md.) as suspension in PBS buffer. Virions were disrupted by exposure to an equal volume of 2% Triton X-100 for 30 minutes at room temperature in a buffer containing 100 mM Tris-HCl, pH 8, 200 mM KCl, 3 mM dithiothreitol [DTT], 10% glycerol, 10 mM MgCl2, 2 U/mL RNasin Ribonuclease Inhibitor, and 2 mg/mL Lysolechithin type V (Sigma, Saint Louis, Mo.). The virus lysate was stored at −80° C. in aliquots.
The concentrations refer to final concentrations unless mentioned otherwise. Nucleotide analog inhibitors were serially diluted 3 fold in water and added to reaction mix containing 10% virus lysate (v/v), 100 mM Tris-HCl (pH 8.0), 100 mM KCl, 1 mM DTT, 10% glycerol, 0.25% Triton-101 (reduced), 5 mM MgCl2, 0.4 U/mL RNasin, and 200 μM ApG dinucleotide primer (TriLink, San Diego Calif.). […]
Reactions were incubated at 30° C. for 90 minutes then spotted onto DE81 filter paper. Filters were air dried, washed 0.125 M Na2HPO4 (3×), water (1×), and EtOH (1×), and air dried before exposed to Typhoon phosphor imager and radioactivity was quantified on a Typhoon Trio (GE Healthcare, Piscataway N.J.). […]

Each structure is given as a SMILES string. Read-outs that look alike come from different tables or passages of the source.

The source of these data is US10941177B2, “2′-substituted carba-nucleoside analogs for antiviral treatment” (Gilead Sciences, Inc., priority 2012, dated 2021).

One may read the IC50 as the concentration at which inhibition is half-maximal. Low values mean greater potency in that assay, high ones weaker potency in that assay.

As for `Nc1nn2c([C@@H]3O[C@H](CO)[C@@H](O)[C@@H]3F)cnc2c(=O)[nH]1` [Compound 7], the EC50 in test [1] came out at 27 µM; in test [2], 37 µM.

The molecule `Nc1nn2c([C@@H]3O[C@H](COP(=O)(O)OP(=O)(O)OP(=O)(O)O)[C@@H](O)[C@H]3F)cnc2c(=O)[nH]1` [Compound 8, ((2R, 3R, 4R, 5S)-5-(2-amino-4-oxo-3,4-dihydroimidazo[1,2-J][1,2,4]triazin-7-yl)-4-fluoro-3-hydroxy-3-hydroxytetrahydrofuran-2-yl)methyl tetrahydrogen triphosphate] showed an IC50 at Influenza RNA polymerase of 2.8 µM.

Take `Nc1nc(N)c2ncc(C3OC(CO)C(O)C3F)n2n1` [Compound 6, (2S,3S,4R,5R)-5-(2,4-diaminoimidazo[1,2-f][1,2,4]triazin-7-yl)-4-fluoro-2-(hydroxymethyl)tetrahydrofuran-3-ol]: the EC50 in test [1] worked out at 21 µM; in test [2] it was 51 µM.

Regarding `COc1nc(N)nn2c([C@@H]3O[C@H](CO)[C@@H](O)[C@H]3F)cnc12` [Compound 19, (2R,3R,4R,5S)-5-(2-amino-4-methoxyimidazo[1,2-f][1,2,4]triazin-7-yl)-4-fluoro-2-(hydroxymethyl)tetrahydrofuran-3-ol], the EC50 in test [1] (Influenza A virus, Epithelial cell, 120 h) was determined as 30 µM; in test [2] (Influenza B virus, Epithelial cell, 120 h), 36 µM.

Consider `CCOc1nc(N)nn2c([C@@H]3O[C@H](CO)[C@@H](O)[C@H]3F)cnc12` [Compound 18, (2R,3R,4R,5S)-5-(2-amino-4-ethoxyimidazo[1,2-f][1,2,4]triazine-7-yl)-4-fluoro-2-(hydroxymethyl)tetrahydrofuran-3-ol], for which the EC50 in test [1] and in test [2] was above 200 µM each time.

With `Nc1ncnn2c([C@H]3O[C@@H](CO)[C@H](O)[C@H]3F)cnc12` [Compound 10, (2S,3S,4R,5R)-5-(4-aminoimidazo[1,2-f][1,2,4]triazin-7-yl)-4-fluoro-2-(hydroxymethyl)tetrahydrofuran-3-ol], the EC50 in test [1] and in test [2] was 0.9 µM each time.

Consider `Nc1nc(F)nn2c([C@@H]3O[C@H](CO)[C@@H](O)[C@H]3F)cnc12` [Compound 12, (2R,3R,4R,5S)-5-(4-amino-2-fluoroimidazo[1,2-f][1,2,4]triazin-7-yl)-4-fluoro-2-(hydroxymethyl)tetrahydrofuran-3-ol], for which the EC50 in test [1] and in test [2] was above 100 µM each time.
